From patent publication US20250145589A1, “PYRIDINE DERIVATIVE AND USE THEREOF” (SICHUAN HUIYU PHARMACEUTICAL CO., LTD., priority 2021, published 2025)
Where two headings read alike, the source gives them in different places.

Columns and labels:
[1] = target: PI3Kα (Homo sapiens (Human), UniProt P42336); test: Inhibition of PI3Kα efficacy assay (ADP-Glo kinase assay); assay type: biochemical; settings: read-out: PI3Kα inhibitory activity (IC50)
Method in brief: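 Eight five-fold dilutions of compound (2 mM DMSO stock) tested; kinase reaction with PI and ATP ran 60 min at RT, followed by ADP-Glo and detection reagent steps of 40 min each. Four-parameter logistic fitting gave IC50 values.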

[2] = system: MIA PaCa-2-AMGR drug-resistant cell line; test: MIA PaCa-2-AMGR drug-resistant cell proliferation inhibitory activity test; assay type: cell-based; settings: MIA PaCa-2-AMGR drug-resistant cells, 3 days incubation, CellTiter-Glo
Method in brief: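 Viability was read by CellTiter-Glo luminescence after 3 days of compound exposure (8 points, 5-fold serial dilution), with IC50 derived relative to untreated control. Cells: AMG510-resistant MIA PaCa-2 (selected stepwise to 1 μM AMG510), 4×10^3/well, DMEM + 10% FBS + 2.5% horse serum, 37° C.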

Chain of PI3Kα (P42336 whole entry): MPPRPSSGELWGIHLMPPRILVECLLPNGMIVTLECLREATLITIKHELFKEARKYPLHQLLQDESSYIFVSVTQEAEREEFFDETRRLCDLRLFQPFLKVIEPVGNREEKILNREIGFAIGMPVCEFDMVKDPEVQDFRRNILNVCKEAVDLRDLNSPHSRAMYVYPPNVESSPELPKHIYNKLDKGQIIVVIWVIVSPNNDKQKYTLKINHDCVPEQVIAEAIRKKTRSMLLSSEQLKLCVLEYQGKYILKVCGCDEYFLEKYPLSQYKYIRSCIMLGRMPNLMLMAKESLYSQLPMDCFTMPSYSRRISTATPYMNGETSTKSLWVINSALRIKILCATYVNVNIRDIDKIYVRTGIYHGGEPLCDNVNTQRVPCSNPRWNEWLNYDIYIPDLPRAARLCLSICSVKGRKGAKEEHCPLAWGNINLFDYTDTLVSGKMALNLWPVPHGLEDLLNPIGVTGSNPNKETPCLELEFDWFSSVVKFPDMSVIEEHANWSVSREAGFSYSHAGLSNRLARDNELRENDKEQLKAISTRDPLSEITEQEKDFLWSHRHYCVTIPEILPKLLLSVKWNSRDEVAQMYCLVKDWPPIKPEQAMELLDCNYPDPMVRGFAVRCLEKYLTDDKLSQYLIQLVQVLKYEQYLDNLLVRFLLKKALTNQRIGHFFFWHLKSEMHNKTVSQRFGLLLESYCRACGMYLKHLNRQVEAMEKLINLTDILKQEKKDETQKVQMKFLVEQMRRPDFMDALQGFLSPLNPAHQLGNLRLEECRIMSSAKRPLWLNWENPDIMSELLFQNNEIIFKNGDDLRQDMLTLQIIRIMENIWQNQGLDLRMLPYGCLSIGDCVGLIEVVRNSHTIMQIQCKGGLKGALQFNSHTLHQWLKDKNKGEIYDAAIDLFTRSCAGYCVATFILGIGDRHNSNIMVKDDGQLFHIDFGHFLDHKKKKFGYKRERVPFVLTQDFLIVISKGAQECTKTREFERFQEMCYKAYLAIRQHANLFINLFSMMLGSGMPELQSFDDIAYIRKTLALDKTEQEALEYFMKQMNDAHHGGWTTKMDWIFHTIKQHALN
Chain of PI3Kα (P27986 whole entry partner): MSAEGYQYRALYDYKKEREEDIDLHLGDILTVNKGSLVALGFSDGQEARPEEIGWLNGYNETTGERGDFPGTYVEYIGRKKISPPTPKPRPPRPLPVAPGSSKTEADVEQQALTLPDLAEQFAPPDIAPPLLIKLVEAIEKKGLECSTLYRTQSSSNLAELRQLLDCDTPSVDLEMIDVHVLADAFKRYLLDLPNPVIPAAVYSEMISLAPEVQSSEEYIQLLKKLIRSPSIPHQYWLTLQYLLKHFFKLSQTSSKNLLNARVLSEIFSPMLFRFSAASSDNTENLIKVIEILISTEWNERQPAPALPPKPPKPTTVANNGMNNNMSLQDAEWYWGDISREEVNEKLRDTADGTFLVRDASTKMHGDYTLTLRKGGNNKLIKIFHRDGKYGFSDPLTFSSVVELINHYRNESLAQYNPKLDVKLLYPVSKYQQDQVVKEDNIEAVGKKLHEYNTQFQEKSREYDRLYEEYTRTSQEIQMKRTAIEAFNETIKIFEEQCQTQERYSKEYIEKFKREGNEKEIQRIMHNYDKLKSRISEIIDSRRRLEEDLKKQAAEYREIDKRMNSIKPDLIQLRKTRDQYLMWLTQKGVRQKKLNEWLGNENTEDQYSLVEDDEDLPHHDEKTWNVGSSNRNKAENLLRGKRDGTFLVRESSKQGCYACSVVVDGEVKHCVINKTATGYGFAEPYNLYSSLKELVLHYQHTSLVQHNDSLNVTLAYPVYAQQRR

| SMILES | IC50 ([1]; Table 2) [nM] | IC50 ([2]; 72 h) [nM] | IC50 ([1]; Table 4) [nM] | further results |
| --- | --- | --- | --- | --- |
| COc1ncc(-c2ccc3ncnc(N4CCN(C(=O)/C=C/C(C)=O)CC4)c3c2)cc1NS(=O)(=O)c1ccccc1F [Example 91, (E)-2-fluoro-N-(2-methoxy-5-(4-(4-(4-oxopent-2-enoyl)piperazin-1-yl)quinazolin-6-yl)pyridin-3-yl)benzenesulfonamide] | 2.6 | 79.8 |  |  |
| COc1ncc(-c2ccc3ncnc(N4CCN(C(=O)/C=C/C(C)=O)CC4)c3c2)cc1NS(=O)(=O)c1ccc(F)cc1 [Example 92, (E)-4-fluoro-N-(2-methoxy-5-(4-(4-(4-oxopent-2-enoyl)piperazin-1-yl)quinazolin-6-yl)pyridin-3-yl)benzenesulfonamide] | 6.4 | 56.9 |  |  |
| COc1ncc(-c2ccc3ncnc(N4CCN(C(=O)/C=C/C(C)=O)CC4)c3c2)cc1NS(=O)(=O)c1ccc(C(F)(F)F)cc1F [Example 124, (E)-2-fluoro-N-(2-methoxy-5-(4-(4-(4-oxopent-2-enoyl)piperazin-1-yl)quinazolin-6-yl)pyridin-3-yl)-4-(trifluoromethyl)benzenesulfonamide] | 4.4 | 83.9 |  |  |
| COc1ncc(-c2ccc3ncnc(N4CCN(C(=O)/C=C/C(C)=O)C[C@@H]4C)c3c2)cc1NS(=O)(=O)c1ccccc1F [Example 152, (S,E)-2-fluoro-N-(2-methoxy-5-(4-(2-methyl-4-(4-oxopent-2-enoyl)piperazin-1-yl)quinazolin-6-yl)pyridin-3-yl)benzenesulfonamide] |  | 52.1 | 0.28 |  |
| COc1ncc(-c2ccc3ncnc(N4CCN(C(=O)/C=C/C(C)=O)CC4)c3c2)cc1NS(=O)(=O)c1c(F)cncc1F [Example 102, (E)-3,5-difluoro-N-(2-methoxy-5-(4-(4-(4-oxopent-2-enoyl)piperazin-1-yl)quinazolin-6-yl)pyridin-3-yl)pyridine-4-sulfonamide] | 1.2 | 908 |  |  |
| COc1ncc(-c2ccc3ncnc(N4CCC5(CC4)CN(C(=O)/C=C/C(C)=O)C5)c3c2)cc1NS(=O)(=O)c1ccc(F)cc1 [Example 161, (E)-4-fluoro-N-(2-methoxy-5-(4-(2-(4-oxopent-2-enoyl)-2,7-diazaspiro[3.5]nonan-7-yl)quinazolin-6-yl)pyridin-3-yl)benzenesulfonamide] |  | 55.3 | 0.82 |  |
| COc1ncc(-c2ccc3ncnc(N4CC5CCC(C4)N5C(=O)/C=C/C(C)=O)c3c2)cc1NS(=O)(=O)c1ccc(F)cc1Cl [Example 175, 2-chloro-4-fluoro-N-(2-methoxy-5-(4-(8-((E)-4-oxopent-2-enoyl)-3,8-diazabicyclo [3.2.1]octan-3-yl)quinazolin-6-yl)pyridin-3-yl)benzene-sulfonamide] |  | 36.7 | 6 |  |
| COc1ncc(-c2ccc3ncnc(N4CCN(C(=O)/C=C/C(C)=O)CC4)c3c2)cc1NS(=O)(=O)c1cc(F)ccc1F [Example 94, (E)-2,5-difluoro-N-(2-methoxy-5-(4-(4-(4-oxopent-2-enoyl)piperazin-1-yl)quinazolin-6-yl)pyridin-3-yl)benzenesulfonamide] | 11 | 126 |  |  |
| COc1ncc(-c2ccc3ncnc(N4CCC5(CC4)CN(C(=O)/C=C/C(C)=O)C5)c3c2)cc1NS(=O)(=O)c1ccc(F)cc1F [Example 20, (E)-2,4-difluoro-N-(2-methoxy-5-(4-(2-(4-oxopent-2-enoyl)-2,7-diazaspiro[3.5]nonan-7-yl)quinazolin-6-yl)pyridin-3-yl)benzenesulfonamide] |  | 111 |  | IC50 ([1]; Table 1): 7.4 nM |
| COc1ncc(-c2ccc3ncnc(N4CCC5(CN(C(=O)/C=C/C(C)=O)C5)C4)c3c2)cc1NS(=O)(=O)c1c(F)cccc1F [Example 42] |  |  |  | IC50 [1]: 1.5 nM; IC50 [2]: 185 nM |
| COc1ncc(-c2ccc3ncnc(N4CCN(C(=O)/C=C/C(C)=O)CC4)c3n2)cc1NS(=O)(=O)c1cc(F)ccc1F [Example 217, (E)-2,5-difluoro-N-(2-methoxy-5-(4-(4-(4-oxopent-2-enoyl)piperazin-1-yl)pyrido[3,2-d]pyrimidin-6-yl)pyridin-3-yl) benzene-sulfonamide] |  | 21.4 | 0.41 |  |
| COc1ncc(-c2ccc3ncnc(N4CC5CCC(C4)N5C(=O)/C=C/C(C)=O)c3c2)cc1NS(=O)(=O)c1c(F)cccc1F [Example 145, 2,6-difluoro-N-(2-methoxy-5-(4-(8-((E)-4-oxopent-2-enoyl)-3,8-diazabicyclo[3.2.1]octan-3-yl)quinazolin-6-yl)pyridin-3-yl)benzenesulfonamide] |  | 113 | 0.44 |  |
| COc1ncc(-c2ccc3ncnc(N4CCN(C(=O)/C=C/C(C)=O)CC4)c3c2)cc1NS(=O)(=O)c1ccc(F)cc1Cl [Example 169, (E)-2-chloro-4-fluoro-N-(2-methoxy-5-(4-(4-(4-oxopent-2-enoyl)piperazin-1-yl)quinazolin-6-yl)pyridin-3-yl)benzenesulfonamide] |  | 54.4 | 3.8 |  |
| CC(=O)/C=C/C(=O)N1CCN(c2ncnc3ccc(-c4cnc(OCC(F)(F)F)c(NS(=O)(=O)c5ccc(F)cc5F)c4)cc23)CC1 [Example 159, (E)-2,4-difluoro-N-(5-(4-(4-(4-oxopent-2-enoyl)piperazin-1-yl)quinazolin-6-yl)-2-(2,2,2-trifluoroethoxy)pyridin-3-yl)benzenesulfonamide] |  | 226 | 11.8 |  |
| COc1ncc(-c2ccc3ncnc(N4CC5CCC4CN5C(=O)/C=C/C(C)=O)c3c2)cc1NS(=O)(=O)c1ccc(F)cc1F (centres unmarked) [Example 158, (E)-2,4-difluoro-N-(2-methoxy-5-(4-(5-(4-oxopent-2-enoyl)-2,5-diazabicyclo[2.2.2]octan-2-yl)quinazolin-6-yl)pyridin-3-yl)benzenesulfonamide] |  | 136 | 3 |  |
| COc1ncc(-c2ccc3ncnc(N4CCN(C(=O)/C=C/C(C)=O)[C@@H](CC#N)C4)c3c2)cc1NS(=O)(=O)c1c(F)cccc1F [Example 116, (S,E)-N-(5-(4-(3-(cyanomethyl)-4-(4-oxopent-2-enoyl)piperazin-1-yl)quinazolin-6-yl)-2-methoxypyridin-3-yl)-2,6-difluorobenzenesulfonamide] | 1.8 | 462 |  |  |
| COc1ncc(-c2ccc3ncnc(N4CCN(C(=O)/C=C/C(C)=O)CC4)c3c2)cc1NS(=O)(=O)c1ccc(Cl)cc1F [Example 177, (E)-4-chloro-2-fluoro-N-(2-methoxy-5-(4-(4-(4-oxopent-2-enoyl)piperazin-1-yl)quinazolin-6-yl)pyridin-3-yl)benzene-sulfonamide] |  | 36.6 | 5 |  |
| COc1ncc(-c2ccc3ncnc(N4CCC5(CC4)CN(C(=O)/C=C/C(C)=O)C5)c3c2)cc1NS(=O)(=O)c1c(F)cc(F)cc1F [Example 101, (E)-2,4,6-trifluoro-N-(2-methoxy-5-(4-(2-(4-oxopent-2-enoyl)-2,7-diazaspiro[3.5]nonan-7-yl)quinazolin-6-yl)pyridin-3-yl)benzenesulfonamide] | 9.9 | 35.9 |  |  |
| COc1ncc(-c2ccc3ncnc(N4CCC5(CC4)CN(C(=O)/C=C/C(C)=O)C5)c3c2)cc1NS(=O)(=O)c1sc(C)nc1C [Example 178, (E)-N-(2-methoxy-5-(4-(2-(4-oxopent-2-enoyl)-2,7-diazaspiro[3.5]nonan-7-yl)quinazolin-6-yl)pyridin-3-yl)-2,4-dimethyl-thiazole-5-sulfonamide] |  | 34 | 20.5 |  |
| COc1ncc(-c2ccc3ncnc(N4CCN(C(=O)/C=C/C(C)=O)CC4)c3c2)cc1NS(=O)(=O)c1sc(C)nc1C [Example 160, (E)-N-(2-methoxy-5-(4-(4-(4-oxopent-2-enoyl)piperazin-1-yl)quinazolin-6-yl)pyridin-3-yl)-2,4-dimethylthiazole-5-sulfonamide] |  | 53.8 | 2 |  |
| COc1ncc(-c2ccc3ncnc(N4CCN(C(=O)/C=C/C(C)=O)CC4)c3n2)cc1NS(=O)(=O)c1cccc(F)c1F [Example 218, (E)-2,3-difluoro-N-(2-methoxy-5-(4-(4-(4-oxopent-2-enoyl)piperazin-1-yl)pyrido[3,2-d]pyrimidin-6-yl)pyridin-3-yl) benzene-sulfonamide] |  | 16.1 | 2.6 |  |
| COc1ncc(-c2ccc3ncnc(N4CCN(C(=O)/C=C/C(C)=O)CC4)c3c2)cc1NS(=O)(=O)c1ccc(C#N)cc1F [Example 123, (E)-4-cyano-2-fluoro-N-(2-methoxy-5-(4-(4-(4-oxopent-2-enoyl)piperazin-1-yl)quinazolin-6-yl)pyridin-3-yl)benzenesulfonamide] | 9.1 | 328 |  |  |
| COc1ncc(-c2ccc3ncnc(N4CCC5(CC=CC5=O)CC4)c3c2)cc1NS(=O)(=O)c1ccc(F)cc1F [Example 70, 2,4-difluoro-N-(2-methoxy-5-(4-(1-oxo-8-azaspiro[4,5]dec-2-en-8-yl)quinazolin-6-yl)pyridin-3-yl)benzenesulfonamide] | 8.8 | 139 |  |  |
| COc1ncc(-c2ccc3ncnc(C4CCN(C(=O)/C=C/C(C)=O)CC4)c3n2)cc1NS(=O)(=O)c1sc(C)nc1C [Example 230, (E)-N-(2-methoxy-5-(4-(1-(4-oxopent-2-enoyl)piperidin-4-yl)pyrido[3,2-d]pyrimidin-6-yl)pyridin-3-yl)-2,4-dimethylthiazol-5-sulfonamide] |  | 35.3 | 2.6 |  |
| COc1ncc(-c2ccc3ncnc(C4CCN(C(=O)/C=C/C(C)=O)CC4)c3c2)cc1NS(=O)(=O)c1c(F)cccc1Cl [Example 206, (E)-2-chloro-6-fluoro-N-(2-methoxy-5-(4-(1-(4-oxopent-2-enoyl)piperidin-4-yl)quinazolin-6-yl)pyridin-3-yl) benzenesulfonamide] |  | 6.9 | 3.9 |  |
